Each block holds one molecule with its values, some of them ahead of it.
Key:
Mcl-1 protein = Mcl-1 protein (UniProtKB primary accession number: Q07820) (Homo sapiens, UniProt Q07820); test: Inhibition of Mcl-1 by fluorescence polarisation, Method 1; type: binding; conditions: fluorescence polarisation test; Method 2 values are underlined in the patent (underlining not visible here); read-out: IC50 (M) Mcl-1 FP
Summary of the method: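 Buffer of 10 mM HEPES pH 7.4 with 150 mM NaCl and 0.05% Tween 20 held 5 nM Mcl-1 and 1 nM fluorescein-tagged ligand (final). Compounds were tested as 11-point serial dilutions at 5% final DMSO, and binding was read by FP.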

[1] = test system: H929 multiple myeloma tumour line; test: In vitro cytotoxicity, Microculture Tetrazolium Assay; type: cell-based; conditions: Homo sapiens, NCI-H929, 48 h, H929 cells, 48 hours exposure, MTT; read-out: IC50 (μM) MTT H929
Method: The cytotoxicity studies were carried out on the H929 multiple myeloma tumour line.
The cells are distributed onto microplates and exposed to the test compounds for 48 hours.

Sequence of Mcl-1 protein (Q07820 whole entry): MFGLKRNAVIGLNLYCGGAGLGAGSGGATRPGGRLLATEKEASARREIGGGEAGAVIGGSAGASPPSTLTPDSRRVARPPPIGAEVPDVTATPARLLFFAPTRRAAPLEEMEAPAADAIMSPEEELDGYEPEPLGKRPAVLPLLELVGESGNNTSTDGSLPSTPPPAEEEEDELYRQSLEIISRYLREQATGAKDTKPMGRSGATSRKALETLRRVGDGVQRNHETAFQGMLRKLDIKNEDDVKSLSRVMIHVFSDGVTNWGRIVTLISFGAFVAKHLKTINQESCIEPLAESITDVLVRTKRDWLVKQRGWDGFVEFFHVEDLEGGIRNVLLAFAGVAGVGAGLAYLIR

Structure (SMILES): Cc1c(-c2c(-c3ccc(F)cc3)sc3ncnc(OC(Cc4ccccc4OCc4ccnc(OCc5cncn5C)n4)C(=O)O)c23)ccc(OCCN2CCN(C)CC2)c1Cl [Example 60, (2R)-2-{[(5Sa)-5-{3-chloro-2-methyl-4-[2-(4-methylpiperazin-1-yl)ethoxy]phenyl}-6-(4-fluorophenyl)thieno[2,3-d]pyrimidin-4-yl]oxy}-3-[2-({2-[(1-methyl-1H-imidazol-5-yl)methoxy]pyrimidin-4-yl}methoxy)phenyl]propanoic acid]
IC50 (Mcl-1 protein): 2.4e-09 M | IC50 [1]: 0.17 µM

Structure (SMILES): CCOCCOc1nccc(COc2ccccc2CC(Oc2ncnc3sc(-c4ccc(F)cc4)c(-c4ccc(OCCN5CCN(C)CC5)c(Cl)c4C)c23)C(=O)O)n1 [Example 64, (2R)-2-{[(5Sa)-5-{3-chloro-2-methyl-4-[2-(4-methylpiperazin-1-yl)ethoxy]phenyl}-6-(4-fluorophenyl)thieno[2,3-d]pyrimidin-4-yl]oxy}-3-(2-{[2-(2-ethoxyethoxy)pyrimidin-4-yl]methoxy}phenyl)propanoic acid]
IC50 (Mcl-1 protein): 4.4e-09 M | IC50 [1]: 0.018 µM

Structure (SMILES): CSc1nccc(COc2ccccc2CC(Oc2ncnc3sc(-c4ccc(F)cc4)c(-c4ccc(OCCN5CCN(C)CC5)c(Cl)c4C)c23)C(=O)O)n1 [Example 65, (2R)-2-{[(5Sa)-5-{3-chloro-2-methyl-4-[2-(4-methylpiperazin-1-yl)ethoxy]phenyl}-6-(4-fluorophenyl)thieno[2,3-d]pyrimidin-4-yl]oxy}-3-(2-{[2-(methylsulfanyl)pyrimidin-4-yl]methoxy}phenyl)propanoic acid]
IC50 (Mcl-1 protein): 1e-08 M | IC50 [1]: 0.043 µM

Structure (SMILES): COCCCSc1nccc(COc2ccccc2CC(Oc2ncnc3sc(-c4ccc(F)cc4)c(-c4ccc(OCCN5CCN(C)CC5)c(Cl)c4C)c23)C(=O)O)n1 [Example 66, (2R)-2-{[(5Sa)-5-{3-chloro-2-methyl-4-[2-(4-methylpiperazin-1-yl)ethoxy]phenyl}-6-(4-fluorophenyl)thieno[2,3-d]pyrimidin-4-yl]oxy}-3-[2-({2-[(3-methoxypropyl)sulfanyl]pyrimidin-4-yl}methoxy)phenyl]propanoic acid]
IC50 (Mcl-1 protein): 4.6e-09 M | IC50 [1]: 0.037 µM

Structure (SMILES): COCCSc1nccc(COc2ccccc2CC(Oc2ncnc3sc(-c4ccc(F)cc4)c(-c4ccc(OCCN5CCN(C)CC5)c(Cl)c4C)c23)C(=O)O)n1 [Example 67, (2R)-2-{[(5Sa)-5-{3-chloro-2-methyl-4-[2-(4-methylpiperazin-1-yl)ethoxy]phenyl}-6-(4-fluorophenyl)thieno[2,3-d]pyrimidin-4-yl]oxy}-3-[2-({2-[(2-methoxyethyl)sulfanyl]pyrimidin-4-yl}methoxy)phenyl]propanoic acid]
IC50 (Mcl-1 protein): 3.4e-09 M | IC50 [1]: 0.03 µM

Structure (SMILES): Cc1c(-c2c(-c3ccc(F)cc3)sc3ncnc(OC(Cc4ccccc4OCc4ccncn4)C(=O)O)c23)ccc(OCCN2CCN(C)CC2)c1Cl [Example 68, (2R)-2-{[(5Sa)-5-{3-chloro-2-methyl-4-[2-(4-methylpiperazin-1-yl)ethoxy]phenyl}-6-(4-fluorophenyl)thieno[2,3-d]pyrimidin-4-yl]oxy}-3-[2-(pyrimidin-4-ylmethoxy)phenyl]propanoic acid]
IC50 (Mcl-1 protein): 9.1e-09 M | IC50 [1]: 0.035 µM

Structure (SMILES): Cc1c(-c2c(-c3ccc(F)cc3)sc3ncnc(OC(Cc4ccccc4OCc4ccnn4C4CCCC4)C(=O)O)c23)ccc(OCCN2CCN(C)CC2)c1Cl [Example 72, (2R)-2-{[(5Sa)-5-{3-chloro-2-methyl-4-[2-(4-methylpiperazin-1-yl)ethoxy]phenyl}-6-(4-fluorophenyl)thieno[2,3-d]pyrimidin-4-yl]oxy}-3-{2-[(1-cyclopentyl-1H-pyrazol-5-yl)methoxy]phenyl}propanoic acid]
IC50 (Mcl-1 protein): 9.3e-09 M | IC50 [1]: 0.04 µM

Structure (SMILES): Cc1c(-c2c(-c3ccc(F)cc3)sc3ncnc(OC(Cc4ccccc4OCc4ccnn4C4CCCCC4)C(=O)O)c23)ccc(OCCN2CCN(C)CC2)c1Cl [Example 73, (2R)-2-{[(5Sa)-5-{3-chloro-2-methyl-4-[2-(4-methylpiperazin-1-yl)ethoxy]phenyl}-6-(4-fluorophenyl)thieno[2,3-d]pyrimidin-4-yl]oxy}-3-{2-[(1-cyclohexyl-1H-pyrazol-5-yl)methoxy]phenyl}propanoic acid]
IC50 (Mcl-1 protein): 8.3e-09 M | IC50 [1]: 0.122 µM

Structure (SMILES): Cc1c(-c2c(-c3ccc(F)cc3)sc3ncnc(OC(Cc4ccccc4OCc4ccnn4C4CCOCC4)C(=O)O)c23)ccc(OCCN2CCN(C)CC2)c1Cl [Example 75, (2R)-2-{[(5Sa)-5-{3-chloro-2-methyl-4-[2-(4-methylpiperazin-1-yl)ethoxy]phenyl}-6-(4-fluorophenyl)thieno[2,3-d]pyrimidin-4-yl]oxy}-3-(2-{[1-(tetrahydro-2H-pyran-4-yl)-1H-pyrazol-5-yl]methoxy}phenyl)propanoic acid]
IC50 (Mcl-1 protein): 4e-09 M | IC50 [1]: 0.11 µM

Structure (SMILES): Cc1c(-c2c(-c3ccc(F)cc3)sc3ncnc(OC(Cc4ccccc4OCc4ccnn4CC4CC4)C(=O)O)c23)ccc(OCCN2CCN(C)CC2)c1Cl [Example 78, (2R)-2-{[(5Sa)-5-{3-chloro-2-methyl-4-[2-(4-methylpiperazin-1-yl)ethoxy]phenyl}-6-(4-fluorophenyl)thieno[2,3-d]pyrimidin-4-yl]oxy}-3-(2-{[1-(cyclopropylmethyl)-1H-pyrazol-5-yl]methoxy}phenyl)propanoic acid]
IC50 (Mcl-1 protein): 6.6e-09 M | IC50 [1]: 0.033 µM

More lines, main results first:

IC50 (Mcl-1 protein): 4.4e-09 M
Structure (SMILES): Cc1c(-c2c(-c3ccc(F)cc3)sc3ncnc(OC(Cc4ccccc4OCc4ccnc(Oc5ccccc5)n4)C(=O)O)c23)ccc(OCCN2CCN(C)CC2)c1Cl [Example 56, (2R)-2-{[(5Sa)-5-{3-chloro-2-methyl-4-[2-(4-methylpiperazin-1-yl)ethoxy]phenyl}-6-(4-fluorophenyl)thieno[2,3-d]pyrimidin-4-yl]oxy}-3-{2-[(2-phenoxypyrimidin-4-yl)methoxy]phenyl}propanoic acid]
IC50 [1]: 0.022 µM

IC50 (Mcl-1 protein): 4e-09 M
Structure (SMILES): Cc1c(-c2c(-c3ccc(F)cc3)sc3ncnc(OC(Cc4ccccc4OCc4ccnc(OCc5ccncc5)n4)C(=O)O)c23)ccc(OCCN2CCN(C)CC2)c1Cl [Example 59, (2R)-2-{[(5Sa)-5-{3-chloro-2-methyl-4-[2-(4-methylpiperazin-1-yl)ethoxy]phenyl}-6-(4-fluorophenyl)thieno[2,3-d]pyrimidin-4-yl]oxy}-3-(2-{[2-(pyridin-4-ylmethoxy)pyrimidin-4-yl]methoxy}phenyl)propanoic acid]
IC50 [1]: 0.021 µM

IC50 (Mcl-1 protein): 6.7e-09 M
Structure (SMILES): CCCOc1nccc(COc2ccccc2CC(Oc2ncnc3sc(-c4ccc(F)cc4)c(-c4ccc(OCCN5CCN(C)CC5)c(Cl)c4C)c23)C(=O)O)n1 [Example 61, (2R)-2-{[(5Sa)-5-{3-chloro-2-methyl-4-[2-(4-methylpiperazin-1-yl)ethoxy]phenyl}-6-(4-fluorophenyl)thieno[2,3-d]pyrimidin-4-yl]oxy}-3-{2-[(2-propoxypyrimidin-4-yl)methoxy]phenyl}propanoic acid]
IC50 [1]: 0.01 µM

IC50 (Mcl-1 protein): 1.6e-08 M
Structure (SMILES): Cc1c(-c2c(-c3ccc(F)cc3)sc3ncnc(OC(Cc4ccccc4OCc4ccnn4-c4ccccc4)C(=O)O)c23)ccc(OCCN2CCN(C)CC2)c1Cl [Example 74, (2R)-2-{[(5Sa)-5-{3-chloro-2-methyl-4-[2-(4-methylpiperazin-1-yl)ethoxy]phenyl}-6-(4-fluorophenyl)thieno[2,3-d]pyrimidin-4-yl]oxy}-3-{2-[(1-phenyl-1H-pyrazol-5-yl)methoxy]phenyl}propanoic acid]
IC50 [1]: 0.365 µM
